# Data from patent US9302999B2, “Substituted triazoles as herbicides” (E. I. DU PONT DE NEMOURS AND COMPANY, priority 2012, dated 2016).
# Tests used:
# [1] = test system: johnsongrass (Sorghum halepense); test: Test E pre-/postemergence: johnsongrass; format: in vivo; settings: Preemergence, scale 0 to 100
# Excerpt: (§1) Seeds of plant species selected from corn (Zea mays), soybean (Glycine max), velvetleaf (Abutilon theophrasti), lambsquarters (Chenopodium album), poinsettia, wild (wild poinsettia, Euphorbia heterophylla), pigweed, palmer (palmer pigweed, Amaranthus palmeri), waterhemp (common waterhemp, Amaranthus rudis), smartweed (ladysthumb smartweed, Polygonum persicaria), surinam grass (Brachiaria decumbens), crabgrass, large (large crabgrass, Digitaria sanguinalis), crabgrass, Brazil (Brazilian crabgrass, Digitaria horizontalis), panicum, fall (fall panicum, Panicum dichotomiflorum), foxtail, giant (giant foxtail, Setaria faberii), foxtail, green (green foxtail, Setaria viridis), goosegrass (Eleusine indica), johnsongrass (Sorghum halepense), ragweed (common ragweed, Ambrosia elation), barnyardgrass (Echinochloa crus-galli), sandbur (southern sandbur, Cenchrus echinatus), arrowleaf sida (Sida rhombifolia), ryegrass, Italian (Italian ryegrass, Lolium multiflorum), dayflower, (VA) (Virginia dayflower, Commelina virginica), field bindweed (Convolvulus arvensis), cocklebur (common cocklebur, Xanthium strumarium), morningglory (Ipomoea coccinea), nightshade (eastern black nightshade, Solanum ptycanthum), kochia (Kochia scoparia), nutsedge, yellow (yellow nutsedge, Cyperus esculentus) and beggarticks (hairy beggarticks, Bidens pilosa) were planted into a silt loam soil and treated preemergence with test chemicals formulated in a non-phytotoxic solvent mixture which included a surfactant. At the same time, plants selected from these crop and weed species were planted in pots containing a growing medium comprising spaghnum peat moss, vermiculite, wetting agent and starter nutrients and treated with postemergence applications of some of the test chemicals formulated in the same manner. Plants ranged in height from 2 to 18 cm for postemergence treatments (1- to 4-leaf stage).
# (§2) Treated plants and controls were maintained in a greenhouse for 14 to 21 days, after which time all species were compared to controls and visually evaluated. Plant response ratings, summarized in Table E, are based on a scale of 0 to 100 where 0 is no effect and 100 is complete control. A dash (-) response means no test result.
# [2] = test system: poinsettia, wild (wild poinsettia, Euphorbia heterophylla); test: Test E pre-/postemergence: poinsettia, wild; format: in vivo; settings: scale 0 to 100
# Excerpt: as §1, §2
# [3] = test system: dayflower, VA (Virginia (VA) dayflower, Commelina virginica); test: Test F pre-/postemergence: dayflower, VA; format: in vivo
# Excerpt: (§3) Seeds of plant species selected from corn (Zea mays), soybean (Glycine max), velvetleaf (Abutilon theophrasti), lambsquarters (Chenopodium album), poinsettia, wild (wild poinsettia, Euphorbia heterophylla), pigweed, palmer (palmer pigweed, Amaranthus palmeri), waterhemp (common waterhemp, Amaranthus rudis), surinam grass (Brachiaria decumbens), crabgrass, Brazil (Brazilian crabgrass, Digitaria horizontalis), panicum, fall (fall panicum Panicum dichotomiflorum), crabgrass, large (large crabgrass, Digitaria sanguinalis), foxtail, giant (giant foxtail, Setaria faberii), foxtail, green (green foxtail Setaria viridis), goosegrass (Eleusine indica), ragweed (common ragweed, Ambrosia elatior), barnyardgrass (Echinochloa crus-galli), sandbur (southern sandbur, Cenchrus echinatus), arrowleaf sida (Sida rhombifolia), ryegrass, Italian (Italian ryegrass, Lolium multiflorum), dayflower, VA (Virginia (VA) dayflower, Commelina virginica), field bindweed (Convolvulus arvensis), cocklebur (common cocklebur, Xanthium strumarium), morningglory (Ipomoea coccinea), nightshade (eastern black nightshade, Solanum ptycanthum), kochia (Kochia scoparia), nutsedge, yellow (yellow nutsedge, Cyperus esculentus), johnsongrass (Sorghum halepense), smartweed (ladysthumb smartweed, Polygonum persicaria), and beggarticks (hairy beggarticks, Bidens pilosa), were planted into a silt loam soil and treated preemergence with test chemicals formulated in a non-phytotoxic solvent mixture which included a surfactant. At the same time, plants selected from these crop and weed species and also pigweed (Amaranthus retroflexus), waterhemp_RES1 (ALS/Triazine resistant common waterhemp, Amaranthus rudis) and waterhemp_RES2 (ALS/HPPD resistant common waterhemp, Amaranthus rudis) were planted in pots containing a planting medium comprising spaghnum peat moss, vermiculite, wetting agent and starter nutrients treated with postemergence applications of some of the test chemicals formulated in the same manner. Plants ranged in height from 2 to 18 cm for postemergence treatments (1- to 4-leaf stage).
# as §2
# [4] = test system: foxtail, giant (giant foxtail, Setaria faberii); test: Test F pre-/postemergence: foxtail, giant; format: in vivo; settings: Preemergence
# Excerpt: as §3, §2
# [5] = test system: nutsedge, yellow (yellow nutsedge, Cyperus esculentus); test: Test F pre-/postemergence: nutsedge, yellow; format: in vivo; settings: Preemergence
# Excerpt: as §3, §2
# [6] = test system: johnsongrass (Sorghum halepense); test: Test F pre-/postemergence: johnsongrass; format: in vivo; settings: Preemergence
# Excerpt: as §3, §2
# [7] = test system: Oilseed Rape; test: Test C postemergence: oilseed rape; format: in vivo
# Excerpt: At the same time, plants selected from these crop and weed species and also barley (winter barley, Hordeum vulgare), canarygrass (Phalaris minor), chickweed (common chickweed, Stellaria media) windgrass (Apera spica-venti) and deadnettle (henbit deadnettle, Lamium amplexicaule) were planted in pots containing Redi-Earth® planting medium (Scotts Company, 14111 Scottslawn Road, Marysville, Ohio 43041) comprising spaghnum peat moss, vermiculite, wetting agent and starter nutrients and treated with postemergence applications of test chemicals formulated in the same manner. Plants ranged in height from 2 to 18 cm (1- to 4-leaf stage) for postemergence treatments.
# as §2, with “13” for “14”, “15” for “21”, “C,” for “E,”
# [8] = test system: Oilseed Rape; test: Test C preemergence: oilseed rape; format: in vivo, Brassica napus; settings: 125 g ai/ha, scale 0 to 100, 0 no effect, 100 complete control
# [9] = Preemergence, 16 g ai/ha, scale 0 to 100 (0 no effect, 100 complete control)
# [10] = Preemergence, 31 g ai/ha, scale 0 to 100 (0 no effect, 100 complete control)
# [11] = Preemergence, 62 g ai/ha, scale 0 to 100
# [12] = Preemergence, 125 g ai/ha, scale 0 to 100
# [13] = 16 g ai/ha, scale 0 to 100 (0 no effect, 100 complete control)
# [14] = 31 g ai/ha, scale 0 to 100 (0 no effect, 100 complete control)
# [15] = Postemergence, 8 g ai/ha, scale 0 to 100
# [16] = Postemergence, 16 g ai/ha, scale 0 to 100
# [17] = Postemergence, 31 g ai/ha, scale 0 to 100
# [18] = Postemergence, 62 g ai/ha, scale 0 to 100
# [19] = 62 g ai/ha, scale 0 to 100 (0 no effect, 100 complete control)
# [20] = 4 g ai/ha, scale 0 to 100, 0 no effect, 100 complete control
# [21] = 8 g ai/ha, scale 0 to 100, 0 no effect, 100 complete control
SMILES,Plant response rating: Johnsongrass ([1]; 16 g ai/ha),Plant response rating: Johnsongrass ([1]; 31 g ai/ha),Plant response rating: Johnsongrass ([1]; 62 g ai/ha),Plant response rating: Johnsongrass ([1]; 125 g ai/ha),"Plant response rating: Poinsettia, Wild ([2]; Preemergence, 16 g ai/ha)","Plant response rating: Poinsettia, Wild ([2]; Preemergence, 31 g ai/ha)","Plant response rating: Poinsettia, Wild ([2]; Preemergence, 62 g ai/ha)","Plant response rating: Poinsettia, Wild ([2]; Preemergence, 125 g ai/ha)","Plant response rating, Dayflower, VA [3, 9]","Plant response rating, Dayflower, VA [3, 10]","Plant response rating, Dayflower, VA [3, 11]","Plant response rating, Foxtail, Giant [4, 13]","Plant response rating, Foxtail, Giant [4, 14]","Plant response rating, Foxtail, Giant ([4]; 62 g ai/ha, scale 0 to 100)","Plant response rating, Nutsedge, Yellow [5, 13]","Plant response rating, Nutsedge, Yellow [5, 14]","Plant response rating, Johnsongrass [6, 13]","Plant response rating, Johnsongrass [6, 14]","Plant response rating, Oilseed Rape [7, 19]","Plant response rating, Oilseed Rape [8]",also measured
"Cc1nn(-c2ccc(F)cc2)nc1Cc1ccnc(C(F)(F)F)c1 [Compound 16, 4-[[2-(4-fluorophenyl)-5-methyl-2H-1,2,3-triazol-4-yl]methyl]-2-(trifluoromethyl)pyridine]",15,20,40,98,0,20,40,98,,,,,,,,,,,,,"Plant response rating: Johnsongrass ([1]; 8 g ai/ha): 0; Plant response rating: Poinsettia, Wild ([2]; Preemergence, 8 g ai/ha): 0"
"Cc1nn(-c2ccc(C(F)(F)F)cc2)nc1Cc1ccnc(C(F)(F)F)c1 [Compound 47, 4-[[5-methyl-2-[4-(trifluoromethyl)phenyl]-2H-1,2,3-triazol-4-yl]methyl]-2-(trifluoromethyl)pyridine]",25,30,35,40,0,25,40,65,,,,,,,,,,,,,"Plant response rating: Johnsongrass ([1]; 250 g ai/ha): 100; Plant response rating: Poinsettia, Wild ([2]; Postemergence, 250 g ai/ha): 100; Plant response rating: Poinsettia, Wild ([2]; Postemergence, 16 g ai/ha): 75; Plant response rating: Poinsettia, Wild ([2]; Postemergence, 31 g ai/ha): 75; Plant response rating: Poinsettia, Wild ([2]; Postemergence, 62 g ai/ha): 90; Plant response rating: Poinsettia, Wild ([2]; Postemergence, 125 g ai/ha): 98; Plant response rating: Poinsettia, Wild ([2]; Preemergence, 250 g ai/ha): 100"
"Cc1nn(-c2ccc(F)cc2)nc1Oc1ccnc(C(F)(F)F)c1 [Compound 129, 4-[[2-(4-fluorophenyl)-5-methyl-2H-1,2,3-triazol-4-yl]oxy]-2-(trifluoromethyl)pyridine]",20,20,20,25,0,0,0,25,,,,,,,,,,,,,"Plant response rating: Johnsongrass ([1]; 8 g ai/ha): 0; Plant response rating: Poinsettia, Wild ([2]; Preemergence, 8 g ai/ha): 0"
Fc1ccc(-n2nc(Cc3ccnc(C(F)(F)F)c3)c(OCC(F)(F)F)n2)cc1 [Compound 142],,,,,,,,,0,5,50,35,75,100,0,0,0,5,,,"Plant response rating, Dayflower, VA [3, 12]: 70; Plant response rating, Foxtail, Giant ([4]; 125 g ai/ha, scale 0 to 100): 100; Plant response rating, Nutsedge, Yellow ([5]; 125 g ai/ha, scale 0 to 100): 0; Plant response rating, Johnsongrass ([6]; 125 g ai/ha, scale 0 to 100): 30"
Cc1nn(-c2ccc(F)c(F)c2)nc1Oc1ccnc(C(F)(F)F)c1 [Compound 145],,,,,,,,,,,,,,,,,,,,,"Plant response rating, Dayflower, VA [3, 15]: 15; Plant response rating, Dayflower, VA [3, 16]: 20; Plant response rating, Dayflower, VA [3, 17]: 50; Plant response rating, Dayflower, VA [3, 18]: 60; Plant response rating, Dayflower, VA ([3]; Postemergence, 125 g ai/ha, scale 0 to 100): 70"
CCCc1nn(-c2ccc(F)cc2)nc1Cc1ccnc(C(F)(F)F)c1 [Compound 153],,,,,,,,,5,10,40,40,85,100,0,0,0,10,90,98,"Plant response rating, Dayflower, VA [3, 12]: 80; Plant response rating, Dayflower, VA ([3]; Preemergence, 250 g ai/ha, scale 0 to 100): 95; Plant response rating, Foxtail, Giant ([4]; 125 g ai/ha, scale 0 to 100): 100; Plant response rating, Foxtail, Giant ([4]; 250 g ai/ha, scale 0 to 100): 100; Plant response rating, Oilseed Rape [7, 14]: 90; Plant response rating, Oilseed Rape ([7]; 250 g ai/ha, scale 0 to 100): 95; Plant response rating, Nutsedge, Yellow ([5]; 125 g ai/ha, scale 0 to 100): 10; Plant response rating, Nutsedge, Yellow ([5]; 250 g ai/ha, scale 0 to 100): 10; Plant response rating, Johnsongrass ([6]; 62 g ai/ha, scale 0 to 100): 50; Plant response rating, Johnsongrass ([6]; 125 g ai/ha, scale 0 to 100): 100; Plant response rating, Johnsongrass ([6]; 250 g ai/ha, scale 0 to 100): 100"
Cc1nn(-c2ccc(C(F)(F)F)c(F)c2)nc1Cc1ccnc(C(F)(F)F)c1 [Compound 162],,,,,,,,,35,35,65,70,100,100,35,35,20,20,90,100,"Plant response rating, Dayflower, VA ([3]; Postemergence, 4 g ai/ha, scale 0 to 100): 5; Plant response rating, Dayflower, VA [3, 15]: 15; Plant response rating, Dayflower, VA [3, 16]: 20; Plant response rating, Dayflower, VA [3, 17]: 20; Plant response rating, Dayflower, VA [3, 18]: 25; Plant response rating, Dayflower, VA ([3]; Preemergence, 4 g ai/ha, scale 0 to 100, 0 no effect, 100 complete control): 0; Plant response rating, Dayflower, VA ([3]; Preemergence, 8 g ai/ha, scale 0 to 100, 0 no effect, 100 complete control): 35; Plant response rating, Foxtail, Giant [4, 20]: 0; Plant response rating, Foxtail, Giant [4, 21]: 20; Plant response rating, Oilseed Rape [7, 14]: 90; Plant response rating, Oilseed Rape ([7]; 250 g ai/ha, scale 0 to 100): 95; Plant response rating, Nutsedge, Yellow [5, 20]: 0; Plant response rating, Nutsedge, Yellow [5, 21]: 0; Plant response rating, Johnsongrass [6, 20]: 20; Plant response rating, Johnsongrass [6, 21]: 20; Plant response rating, Johnsongrass ([6]; 62 g ai/ha, scale 0 to 100): 20"
CCc1nn(-c2ccc(F)cc2)nc1Oc1ccnc(C(F)(F)F)c1 [Compound 166],,,,,,,,,,,,,,,,,,,5,90,"Plant response rating, Oilseed Rape ([7]; 250 g ai/ha, scale 0 to 100): 40"
CCCc1nn(-c2ccc(C(F)(F)F)c(F)c2)nc1Oc1ccnc(C(F)(F)F)c1 [Compound 185],,,,,,,,,,,,,,,,,,,50,100,
CCOc1nn(-c2ccc(Br)cc2)nc1Cc1ccnc(C(F)(F)F)c1 [Compound 189],,,,,,,,,,,,,,,,,,,,85,
